In one experiment the target is T1, human glucagon receptor (Homo sapiens, UniProt P47871).
T1 construct: The full-length cDNA was cloned in pcDNA3.1(Invitrogen); expressed in transfected cells
The experiment is described as follows: In vitro human glucagon antagonist activity (inhibition of cAMP production), CHO/human glucagon R cells. The settings on record: in vitro, FIG. 3 / FIG. 4. The format is cell-based. The protocol: CHO cells were grown in Ham's F12 medium containing L-Glutamine (2 mM), HEPES (25 mM), NaHCO3 (1.1 g/L) and supplemented with newborn Calf Serum (NBCS; 10%), Penicillin (50 U/ml (v/v)) and Streptomycin (50 ug/ml (v/v)). Cells were split every 3 days 1:8.
The full-length cDNA was cloned in pcDNA3.1(Invitrogen). […] Clones expressing the receptor were generated by G418 (800 μg/ml active, Sigma) selection. The stable clones were thereafter maintained at 500 ug/ml (G418). The selected clone was used between passages 9-25 for cAMP assays.
The trypsin was inactivated using Ham's F12 medium containing 10% NBCS and the cells were suspended in 2 ml of complete medium. […] The medium was aspirated off from the 12 well plate and the cells were washed once using Ham's F12 (plain). […] After the incubation; the medium was removed and cells were washed once with plain Ham's F12. Subsequently, the cells were lysed by adding 500 ul of ice cold 0.1 N HCl to each well and shaking for 30 minutes at 200 rpm. The cells were then scrapped, the lysate was collected in micro centrifuge tubes and centrifuged at 12000 rpm for 10 min to remove the debris. 300 ul of supernatant from each micro-centrifuge tube was then removed into a glass tube and dried under N2 for 30 min, for cAMP estimation. The total cAMP was estimated from the sample according to the manufacturer's protocol using Cyclic AMP immunoassay kit (R&D systems, Minneapolis: MN). The remaining supernatant is used to determine the protein concentration using micro BCA (Sigma). Data is calculated as percent of control (Vehicle: water) and expressed as Mean+SD.
For orientation: Cyclic AMP is a second messenger, typically raised through Gs and lowered through Gi signalling.

A further experiment deals with T2, Human GLP-1 receptor (Homo sapiens, UniProt P43220).
T2 construct: The full-length cDNA was cloned in pcDNA3.1(+); expressed in transfected cells
Format: cell-based. The settings on record: in vitro, dipeptides, FIG. 3. How it is done:
The novel peptidomimetics were screened for Human GLP-1 receptor (HGLP-1 R) agonist activity (in vitro), using the cAMP cell-based assay, in stably transfected CHO/human GLP1R cells. […] CHO cells were grown in Ham's F12 medium containing L-Glutamine (2 mM), HEPES (25 mM), NaHCO3 (1.1 g/L) and supplemented with NewBorn Calf Serum (NBCS; 10%), Penicillin (50 U/ml (v/v)) and Streptomycin (50 ug/ml (v/v)). Cells were split every 3 days 1:8.
The cDNA encoding the human GLP-1 receptor was isolated by RT-PCR according to standard protocol. The full-length cDNA was cloned in pcDNA3.1(+). […] Clones expressing the receptor were generated by G418 (800 μg/ml active, Sigma) selection. The stable clones were thereafter maintained at 500 ug/ml (G418). The selected clone was used between passages 9-25 for cAMP assays.
The trypsin was inactivated using Ham's F12 medium containing 10% NBCS and the cells were suspended in 2 ml of complete medium. […] The medium was aspirated off from the 12 well plate and the cells were washed once using Ham's F12 (plain). […] The cells were incubated with the test compounds for 30 min in humidified atmosphere and 37° C. After the incubation, the medium was removed and cells were washed once with plain Ham's F12. Subsequently, the cells were lysed by adding 500 ul of ice cold 0.1 N HCl to each well and shaking for 30 minutes at 200 rpm. […] The total cAMP was estimated from the sample according to the manufacturer's protocol using Cyclic AMP immunoassay kit (R&D systems, Minneapolis. MN). The remaining supernatant is used to determine the protein concentration using micro BCA (Sigma). Data is calculated as percent of control (Vehicle: water) and expressed as Mean±SD.

The next experiment concerns C57BL/6J mice. Briefly: Acute single dose 120-min time-course experiment, in vivo glucose reduction in C57BL/6J mice. Also on record: unit not given here. The settings on record: male C57BL/6J mice, Mean ± SEM. The protocol: All the animal experiments were carried out according to the internationally valid guidelines following approval by the ‘Zydus Research Center animal ethical committee’. […] Two days prior to the study, the animals were randomised and divided into 5 groups (n=6), based upon their fed glucose levels. On the day of experiment, food was withdrawn from all the cages, water was given ad-libitum and were kept for overnight fasting. Vehicle (normal saline)/test/standard compounds were administered intraperitoneally (i.p.) or orally, on a body weight basis. […] Blood samples were centrifuged and the separated serum was immediately subjected for the glucose estimation. Serum for insulin estimation was stored at −70° C. until used for the insulin estimation. The glucose estimation was carried out with DPEC-GOD/POD method (Ranbaxy Fine Chemicals Limited, Diagnostic division, India), using Spectramax-190, in 96-microwell plate reader (Molecular devices Corporation, Sunnyvale, Calif.). […] The AUC and BCAUC obtained from graphs were analyzed for one way ANOVA, followed by Dunnett's post test, using Graph Pad prism software. Furthermore, the insulin estimation was carried out using rat/mouse insulin ELISA kit (Linco research, Mo. USA).

T1 sequence (P47871 26-477): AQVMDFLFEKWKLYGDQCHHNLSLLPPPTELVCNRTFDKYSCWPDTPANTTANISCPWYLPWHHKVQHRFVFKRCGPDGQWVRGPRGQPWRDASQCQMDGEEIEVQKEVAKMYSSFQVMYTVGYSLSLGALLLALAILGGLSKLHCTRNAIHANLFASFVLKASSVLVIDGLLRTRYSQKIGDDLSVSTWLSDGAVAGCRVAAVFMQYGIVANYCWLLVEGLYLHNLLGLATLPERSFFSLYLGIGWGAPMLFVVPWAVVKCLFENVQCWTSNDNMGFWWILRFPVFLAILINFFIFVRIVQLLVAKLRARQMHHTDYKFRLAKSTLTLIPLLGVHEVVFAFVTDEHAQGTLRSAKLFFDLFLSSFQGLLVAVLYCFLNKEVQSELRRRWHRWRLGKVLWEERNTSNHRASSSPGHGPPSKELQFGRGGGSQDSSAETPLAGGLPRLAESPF
T2 sequence (P43220 24-463): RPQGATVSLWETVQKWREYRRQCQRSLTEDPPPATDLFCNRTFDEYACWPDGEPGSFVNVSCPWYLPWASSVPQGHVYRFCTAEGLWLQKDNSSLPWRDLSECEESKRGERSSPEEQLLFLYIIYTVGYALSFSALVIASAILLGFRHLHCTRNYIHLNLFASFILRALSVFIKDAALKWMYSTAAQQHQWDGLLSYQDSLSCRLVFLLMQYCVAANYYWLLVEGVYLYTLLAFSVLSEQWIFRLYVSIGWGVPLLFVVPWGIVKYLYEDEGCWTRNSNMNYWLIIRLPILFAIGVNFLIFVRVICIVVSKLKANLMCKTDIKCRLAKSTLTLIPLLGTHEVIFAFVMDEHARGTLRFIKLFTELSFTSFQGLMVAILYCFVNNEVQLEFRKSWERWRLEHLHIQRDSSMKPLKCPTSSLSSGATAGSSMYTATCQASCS

Turning to Bip(OMe)-Bip(2F), the “activity in human Glucagon receptor assay (in words)” value at human glucagon receptor is reported as “antagonistic activity”. For the same molecule, the “activity in human GLP-1 receptor assay (in words)” value at Human GLP-1 receptor is given as “antagonistic activity”.

Consider Bip(OMe)-Bip(2Me), for which, at human glucagon receptor, the “activity in human Glucagon receptor assay (in words)” value is reported as “antagonistic activity”. In addition, the “activity in human GLP-1 receptor assay (in words)” value at Human GLP-1 receptor is listed as “antagonistic activity”.

With Bip(OMe)-Bip(Pyr), the “activity in human Glucagon receptor assay (in words)” value on human glucagon receptor is “antagonistic activity”. Also, the “activity in human GLP-1 receptor assay (in words)” value at Human GLP-1 receptor is reported as “antagonistic activity”.

Consider `CCc1cc(OC)ccc1-c1ccc(CC(NC(=O)[C@H](CC(=O)O)NC(=O)[C@H](CO)NC(=O)[C@@H](NC(=O)C(C)(Cc2ccccc2F)NC(=O)[C@@H](NC(=O)CNC(=O)[C@H](CCC(N)=O)NC(=O)C2(NC(=O)[C@@H](N)Cc3c[nH]cn3)CC2)[C@@H](C)O)[C@@H](C)O)C(=O)NC(Cc2ccc(-c3ccccc3F)cc2)C(N)=O)cc1` (single isomer, unassigned) [Seq. ID. No. 35, H-(ACP)-QGT-(α-Me-2F-Phe)-TSD-Bip(OMe)-Bip(2F)], for which the blood glucose level is given as 182 ± 4.1 in the experiment on C57BL/6J mice (10 nM/kg, i.p, 0 min); 112 ± 3.1 in the experiment with C57BL/6J mice (10 nM/kg, i.p, 30 min); 113 ± 2.6 in the experiment with C57BL/6J mice (10 nM/kg, i.p, 60 min); 111 ± 1.8 in the experiment with C57BL/6J mice (10 nM/kg, i.p, 120 min); 183 ± 2.1 with C57BL/6J mice (2 μM/kg, oral, 0 min); 118 ± 3.4 in the experiment with C57BL/6J mice (2 μM/kg, oral, 30 min). The blood glucose level in the experiment with C57BL/6J mice (2 μM/kg, oral, 60 min) was determined as 113 ± 4.6; in the experiment with C57BL/6J mice (2 μM/kg, oral, 120 min) it was 111 ± 2.8.

As for `CCc1cc(OC)ccc1-c1ccc(CC(NC(=O)[C@H](CC(=O)O)NC(=O)[C@H](CO)NC(=O)[C@@H](NC(=O)C(C)(Cc2ccccc2F)NC(=O)[C@@H](NC(=O)CNC(=O)[C@H](CCC(N)=O)NC(=O)C2(NC(=O)[C@@H](N)Cc3c[nH]cn3)CC2)[C@@H](C)O)[C@@H](C)O)C(=O)NC(Cc2ccc(-c3ccccc3C)nc2)C(N)=O)cc1` (single isomer, unassigned) [Seq. ID. No. 34, H-(ACP)-QGT-(α-Me-2F-Phe)-TSD-Bip(OMe)-Bip(Pyr)], the blood glucose level is reported as 180 ± 4.2 in the experiment with C57BL/6J mice (10 nM/kg, i.p, 0 min); 113 ± 3.2 in the experiment on C57BL/6J mice (10 nM/kg, i.p, 30 min); 112 ± 2.4 with C57BL/6J mice (10 nM/kg, i.p, 60 min); 110 ± 1.9 in the experiment on C57BL/6J mice (10 nM/kg, i.p, 120 min); 184 ± 2.2 with C57BL/6J mice (2 μM/kg, oral, 0 min); 118 ± 3.3 in the experiment on C57BL/6J mice (2 μM/kg, oral, 30 min). Also, the blood glucose level in the experiment on C57BL/6J mice (2 μM/kg, oral, 60 min) is on record as 112 ± 4.4; in the experiment on C57BL/6J mice (2 μM/kg, oral, 120 min), 110 ± 2.9.

For the molecule `CCc1cc(OC)ccc1-c1ccc(CC(NC(=O)[C@H](CC(=O)O)NC(=O)[C@H](CO)NC(=O)[C@@H](NC(=O)C(C)(Cc2ccccc2F)NC(=O)[C@@H](NC(=O)CNC(=O)[C@H](CCC(N)=O)NC(=O)C(C)(C)NC(=O)[C@@H](N)Cc2c[nH]cn2)[C@@H](C)O)[C@@H](C)O)C(=O)NC(Cc2ccc(-c3ccccc3C)nc2)C(N)=O)cc1` (single isomer, unassigned) [Seq. ID. No. 30, H-Aib-QGT-(α-Me-2F-Phe)-TSD-Bip(OMe)-Bip(Pyr)], the blood glucose level in the experiment on C57BL/6J mice (10 nM/kg, i.p, 0 min) came out at 182 ± 2.1; in the experiment with C57BL/6J mice (10 nM/kg, i.p, 30 min), 111 ± 2.1; with C57BL/6J mice (10 nM/kg, i.p, 60 min), 112 ± 2.8; in the experiment on C57BL/6J mice (10 nM/kg, i.p, 120 min), 113 ± 2.2; in the experiment with C57BL/6J mice (2 μM/kg, oral, 0 min), 183 ± 2.4; with C57BL/6J mice (2 μM/kg, oral, 30 min), 116 ± 3.1. Moreover, the blood glucose level came out at 112 ± 4.8 in the experiment on C57BL/6J mice (2 μM/kg, oral, 60 min) and 110 ± 2.5 in the experiment on C57BL/6J mice (2 μM/kg, oral, 120 min).

Turning to `CCc1cc(OC)ccc1-c1ccc(CC(NC(=O)[C@H](CC(=O)O)NC(=O)[C@H](CO)NC(=O)[C@@H](NC(=O)[C@H](Cc2ccccc2)NC(=O)[C@@H](NC(=O)CNC(=O)[C@H](CCC(N)=O)NC(=O)C(C)(C)NC(=O)[C@@H](N)Cc2c[nH]cn2)[C@@H](C)O)[C@@H](C)O)C(=O)NC(Cc2ccc(-c3ccccc3C(F)(F)F)cc2)C(N)=O)cc1` (single isomer, unassigned) [Seq. ID. No. 16, H-Aib-QGTFTSD-Bip(OMe)-Bip(2CF3)], the blood glucose level was 183 ± 4.9 with C57BL/6J mice (30 nM/kg, i.p, 0 min); 117 ± 2.5 in the experiment with C57BL/6J mice (30 nM/kg, i.p, 30 min); 116 ± 2.3 with C57BL/6J mice (30 nM/kg, i.p, 60 min); 119 ± 2.0 in the experiment on C57BL/6J mice (30 nM/kg, i.p, 120 min).

Turning to Bip(OMe)-Bip(2CF3), the “activity in human Glucagon receptor assay (in words)” value on human glucagon receptor is recorded as “antagonistic activity”. The “activity in human GLP-1 receptor assay (in words)” value on Human GLP-1 receptor is on record as “antagonistic activity”.

The values above are taken from patent publication US8841413B2, “Antidiabetic compounds” (Cadila Healthcare Limited, priority 2006, dated 2014).
